From ChEMBL document CHEMBL6092167, “Phosphorylation as an Effective Tool to Improve Stability and Reduce Toxicity of Antimicrobial Peptides” (J Med Chem, 2024) come the findings set out here.

The source made the active and inactive calls. The rule behind the calls is not given here. Non-standard residues stand in square brackets, D forms with d. Residues, ends and D or L forms follow the SMILES beside them. Bip = N[C@@H](Cc1ccc(-c2ccccc2)cc1)C(=O)O; pY = N[C@@H](Cc1ccc(OP(=O)(O)O)cc1)C(=O)O

The test system of data set [1] is Klebsiella pneumoniae. Nature of the data set: Bactericidal activity against Klebsiella pneumoniae ATCC 700603 at 2 times MIC measured upto 1440 mins by time kill assay. It is filed as functional, organism-based.
The subject of data set [2] is Staphylococcus aureus. Briefly: Bactericidal activity against Staphylococcus aureus ATCC 25923 at 2 times MIC measured upto 1440 mins by time kill assay. The class given is functional, organism-based.
The nature of data set [3]: Toxicity in BALB/c mouse assessed as mortality at 40 to 130 mg/kg, ip measured after 14 days. The class given is organism-based. Particulars: in vivo, 336 h, dose 40-130 mg/kg, time 14 day.
Data set [4] can be described thus: Toxicity in ip dosed BALB/c mouse assessed as hemorrhage in lung at LD50 dose by H and E staining based assay. The class given is organism-based. The following applies: in vivo.
The nature of data set [5]: Toxicity in ip dosed BALB/c mouse assessed as inflammatory cell infiltration in lung at LD50 dose by H and E staining based assay. The class given is organism-based. Particulars: in vivo.
Data set [6] is described as follows: Toxicity in ip dosed BALB/c mouse assessed as hemorrhage in kidney at LD50 dose by H and E staining based assay. The class given is organism-based. Particulars: in vivo.
Data set [7] relates to Staphylococcus aureus. Briefly: Antibacterial activity against Staphylococcus aureus ATCC 25923 infected in BALB/c mouse systemic infection model assessed as reduction in bacterial load in lung at 20 mg/kg, ip pre-infected for 2 hrs followed by compound addition and measured after 8 hrs postinfection. It is filed as functional, organism-based. Particulars: time 6.0 hrs.
The subject of data set [8] is Staphylococcus aureus. Briefly: Antibacterial activity against Staphylococcus aureus ATCC 25923 infected in BALB/c mouse systemic infection model assessed as reduction in bacterial load in kidney at 20 mg/kg, ip pre-infected for 2 hrs followed by compound addition and measured after 8 hrs postinfection. It is filed as functional, organism-based. The following applies: time 6.0 hrs.

In data set [9] the test system is Staphylococcus aureus. Briefly: Antibacterial activity against Staphylococcus aureus ATCC 25923 infected in BALB/c mouse systemic infection model assessed as improved alveoli dilation at 20 mg/kg, ip pre-infected for 2 hrs followed by compound addition and measured after 8 hrs postinfection. It is filed as functional, organism-based. The following applies: time 6.0 hrs.

Data set [10] concerns Klebsiella pneumoniae. Nature of the data set: Antibacterial activity against Klebsiella pneumoniae ATCC 700603 infected in BALB/c mouse lung infection model assessed as increase in mouse survival at 5 mg/kg, ip administered twice daily for 3 days and measured for 7 days. The class given is functional, organism-based. The following applies: time 10.0 day.
The subject of data set [11] is Klebsiella pneumoniae. Briefly: Antibacterial activity against Klebsiella pneumoniae ATCC 700603 infected in BALB/c mouse lung infection model assessed as increased healing at 5 mg/kg, ip administered twice daily for 3 days and measured for 7 days. It is filed as functional, organism-based. The following applies: time 10.0 day.
Data set [12] concerns Klebsiella pneumoniae. Nature of the data set: Antibacterial activity against Klebsiella pneumoniae ATCC 700603 infected in BALB/c mouse lung infection model assessed as alveolar dilation at 5 mg/kg, ip administered twice daily for 3 days and measured after 7 days. It is filed as functional, organism-based. Particulars: time 10.0 day.
Data set [13] deals with Staphylococcus aureus. Nature of the data set: Antibacterial activity against Staphylococcus aureus ATCC 25923 assessed as fold increase in MIC in presence of Na+. It is filed as functional.
Data set [14] relates to Staphylococcus aureus. Nature of the data set: Antibacterial activity against Staphylococcus aureus ATCC 25923 in presence of KCl. The class given is functional, organism-based.
Data set [15] concerns Staphylococcus aureus. Briefly: Antibacterial activity against Staphylococcus aureus ATCC 25923 in presence of MgCl2. The class given is functional, organism-based.
For data set [16], the system named is Escherichia coli. Briefly: Antibacterial activity against Escherichia coli ATCC 25922 in presence of […]. It is filed as functional, organism-based.
The subject of data set [17] is Escherichia coli. Briefly: Antibacterial activity against Escherichia coli ATCC 25922 in presence of KCl. It is filed as functional, organism-based.
The test system of data set [18] is Klebsiella pneumoniae. Briefly: Bactericidal activity against Klebsiella pneumoniae ATCC 700603 at 2 times MIC within 60 mins by time kill assay. It is filed as functional, organism-based.
For data set [19], the system named is Staphylococcus aureus. Briefly: Bactericidal activity against Staphylococcus aureus ATCC 25923 at 2 times MIC within 120 mins by time kill assay. It is filed as functional, organism-based.
The nature of data set [20]: Toxicity in ip dosed BALB/c mouse assessed as effect on lung at LD50 dose by H and E staining based assay. The class given is organism-based. Particulars: in vivo.
Data set [21] can be described thus: Toxicity in ip dosed BALB/c mouse assessed as liver bleeding at LD50 dose by H and E staining based assay. It is filed as organism-based. The following applies: in vivo.
A short description of data set [22]: Toxicity in ip dosed BALB/c mouse assessed as kidney bleeding at LD50 dose by H and E staining based assay. It is filed as organism-based. The following applies: in vivo.
In data set [23] the test system is Staphylococcus aureus. Nature of the data set: Antibacterial activity against Staphylococcus aureus ATCC 25923 infected in BALB/c mouse systemic infection model assessed as reduction in bacterial load in lung at 21.21 mg/kg, ip pre-infected for 2 hrs followed by compound addition and measured after 8 hrs postinfection. The following applies: time 6.0 hrs. It is filed as functional, organism-based.

In data set [24] the test system is Staphylococcus aureus. Briefly: Antibacterial activity against Staphylococcus aureus ATCC 25923 infected in BALB/c mouse systemic infection model assessed as improved alveoli dilation at 21.21 mg/kg, ip pre-infected for 2 hrs followed by compound addition and measured after 8 hrs postinfection. The class given is functional, organism-based. Particulars: time 6.0 hrs.

Data set [25] relates to Klebsiella pneumoniae. Nature of the data set: Antibacterial activity against Klebsiella pneumoniae ATCC 700603 infected in BALB/c mouse lung infection model assessed as increase in mouse survival at 5.31 mg/kg, ip administered twice daily for 3 days and measured for 7 days. The following applies: time 10.0 day. It is filed as functional, organism-based.
The subject of data set [26] is Klebsiella pneumoniae. Briefly: Antibacterial activity against Klebsiella pneumoniae ATCC 700603 infected in BALB/c mouse lung infection model assessed as increased healing at 5.31 mg/kg, ip administered twice daily for 3 days and measured for 7 days. The class given is functional, organism-based. Particulars: time 10.0 day.

For the molecule `CC(C)C[C@H](NC(=O)[C@H](CC(C)C)NC(=O)[C@H](Cc1ccc(O)cc1)NC(=O)[C@H](CCCCN)NC(=O)[C@H](CC(C)C)NC(=O)[C@H](CCCNC(=N)N)NC(=O)[C@H](CCCCN)NC(=O)[C@H](Cc1ccc(-c2ccccc2)cc1)NC(=O)[C@H](CC(C)C)NC(=O)CN)C(N)=O` (H-GL[Bip]KRLKYLL-NH2), the result with Klebsiella pneumoniae [1], with Staphylococcus aureus [2], in the data set with Staphylococcus aureus [7], with Staphylococcus aureus [8], in the data set with Staphylococcus aureus [9] and with Klebsiella pneumoniae [11] was Active. Besides, in the data set on Klebsiella pneumoniae [12], the result was Active. Besides, the Activity entry in [3] is “Toxic”; in [4], “Toxic”; in [5] it was “Toxic”; in data set [6] it was “Toxic”; in the data set on Klebsiella pneumoniae [10], “Active; Comparable Activity To Polymyxin B”.

Regarding `CC(C)C[C@H](NC(=O)[C@H](CC(C)C)NC(=O)[C@H](Cc1ccc(OP(=O)(O)O)cc1)NC(=O)[C@H](CCCCN)NC(=O)[C@H](CC(C)C)NC(=O)[C@H](CCCNC(=N)N)NC(=O)[C@H](CCCCN)NC(=O)[C@H](Cc1ccc(-c2ccccc2)cc1)NC(=O)[C@H](CC(C)C)NC(=O)CN)C(N)=O` (H-GL[Bip]KRLK[pY]LL-NH2), the Activity entry is recorded as “Active; Compound Showed Excellent Tolerance Towards Salt Environment” in the data set with Staphylococcus aureus [13]; “Active; Compound Showed Excellent Tolerance Towards Salt Environment” with Staphylococcus aureus [14]; “Active; Compound Showed Excellent Tolerance Towards Salt Environment” with Staphylococcus aureus [15]; “Active; Compound Showed Excellent Tolerance Towards Salt Environment” with Escherichia coli [16]; “Active; Compound Showed Excellent Tolerance Towards Salt Environment” with Escherichia coli [17]; “Toxic” in data set [20]. Further, the Activity result was “Toxic” in data set [21], “Toxic” in data set [22] and “Active; Comparable Activity To Polymyxin B” with Klebsiella pneumoniae [25]. The result in the data set on Klebsiella pneumoniae [18], in the data set on Staphylococcus aureus [19], in the data set with Staphylococcus aureus [23], in the data set with Staphylococcus aureus [24] and in the data set on Klebsiella pneumoniae [26] was Active.
